The values that follow come from US11464224B2, “Liquid spreading composition with ectoparasiticidal activity, a method and use thereof for combating ectoparasites in human and veterinary medicine, as well as in agricultural, horticultural and/or garden environments” (priority 2014, dated 2022).

Data set [1] in a line: Spreading test: 5 μl drop on glass plate, area covered after 30 min. It is filed as physicochemical. The conditions noted are these: 25° C. An excerpt: The following tests have been performed to measure and compare spreading properties of the composition prepared according to Example 1 (N) with Isopropyl Myristate (IPM) and Diethylene Glycol Monoethyl Ether (DGME), known from the state of art as spreading agents. All compositions acted as a carrier of an active insecticidal substance: clove oil (an insect repellent), S-Methoprene (biochemical pesticide interfering with an insect's lifecycle and preventing it from reaching maturity or reproducing) or Etofenprox (neurotoxic insecticide, which disturbs insect nervous systems).
Area (S) of the surface (cm^2) covered by the composition has been measured after 30 min. As an alternative spreading indicator one might also employ Emollient Skin Spreading Factor as defined by Croda (Croda DS-128, Emollient Skin Spreading Factor (1998)).
The following tests have been performed to measure and compare spreading properties of the composition prepared according to Example 1 with ectoparasiticidal compositions known from the state of art. As in the previous tests 5 μl drop of the composition has been applied in the middle of a glass plate at 25° C. Area of the surface (cm^2) covered by the composition has been measured after 30 min.

In another data set the test system is adult lice. The conditions noted are these: cited from earlier work.

SMILES strings stand for the structures. Like-named read-outs stand apart in the source and are kept apart here.

As to `CCCCCCCCCCCCCC(=O)OC(C)C` [compound 10, Isopropyl Myristate], the “S, area of the surface covered by the composition (active substance carriers)” value in data set [1] turned out to be 0.6 cm^2. Also, the “Mortality of adult lice” value in the data set on adult lice (concentration below 70% by weight) is recorded as “less than 20%”; with adult lice (concentration of over 80% by weight) it was 100%.
As to `CCOCCOCCO` [compound 11, Diethylene Glycol Monoethyl Ether], the “S, area of the surface covered by the composition (active substance carriers)” value in data set [1] was 0.6 cm^2.
